# Reference: patent publication US6995188B2 (priority 2002, dated 2006)
# Where “and” joins values, the source holds several entries; their conditions need not be identical. Identical values can stand only once.
# Experiments:
# [1] = test system: NB4 cells; format: cell-based, human
# [2] = test system: caspase 3 and caspase 3-like activities; format: cell-based, human
# [3] = test system: HL-60 cells; format: cell-based, human
# [4] = test system: blood mononuclear cells from leukemia patients; format: cell-based, human
# [5] = SGLU1 multiple dose toxicology in vivo; design: species or system mice; key to Death: “—” indicates no compound-related finding
# Method: Further studies were performed to determine the dose-limiting toxicity associated with the administration of repeated doses in groups of mice. Tables 11–16 below describe the results of the multiple-dose toxicology studies for MER-1 and Tables 17–21 describe results of the multiple-dose toxicology of SGLU-1.
# The results of the SGLU-1 Multiple Dose I.V. are summarized as follows: Five mice/sex were administered 5 daily intravenous injections of SGLU via the tail vein at doses of 50, 100, 150, 200, 250, 300, and 350 mg/kg/day. All surviving mice were held for 28 days, sacrificed, and designated tissues collected, formalin fixed, and examined.
compound,measurement,setting,value
"C[As](C)SC[C@H](NC(=O)CC[C@H](N)C(=O)O)C(=O)NCC(=O)O [SGLU1, S-(dimethylarsino) glutathione]",induction of maturation (CD11b expression),[1],do not induce maturation
same,activation of caspases (PhiPhiLux staining),[2],activation of caspases
same,effect on cell cycle,[3],marked accumulation of cells in S-phase of cell cycle
same,activity against blood cells from patients with leukemia,[4],significant activity against blood tumor cells from patients with leukemia
same,Clinical Signs,[5]; 50 mg/kg/day IV daily x5,None.
same,Death,[5]; 50 mg/kg/day IV daily x5,—
same,"Kidney: Murine progressive glomerulonephropathy, incidence","[5]; 50 mg/kg/day, F",1/5
same,"Liver: Pyogranuloma, focal, incidence","[5]; 50 mg/kg/day, F",1/5
same,"Lung: Hemorrhage, focal, incidence","[5]; 50 mg/kg/day, F",1/5
same,Number of animals/dose that tolerated 5 doses,"[5]; 50 mg/kg/day, F",5/5
same,Body Weights Avg.,"[5]; 50 mg/kg/day, Female",25 grams
same,"Liver: Pyogranuloma, focal, incidence","[5]; 50 mg/kg/day, M",1/5
same,"Lung: Atelectasis, incidence","[5]; 50 mg/kg/day, M",1/5
same,"Lung: Pleural adhesion, focal, incidence","[5]; 50 mg/kg/day, M",1/5
same,Number of animals/dose that tolerated 5 doses,"[5]; 50 mg/kg/day, M",5/5
same,Body Weights Avg.,"[5]; 50 mg/kg/day, Male",25 grams
same,Clinical Signs,[5]; 100 mg/kg/day IV daily x5,None.
same,Death,[5]; 100 mg/kg/day IV daily x5,—
same,"Kidney: Inflammation, focal, incidence","[5]; 100 mg/kg/day, F",2/5
same,"Liver: Pyogranuloma, focal, incidence","[5]; 100 mg/kg/day, F",5/5
same,Number of animals/dose that tolerated 5 doses,"[5]; 100 mg/kg/day, F",5/5
same,Body Weights Avg.,"[5]; 100 mg/kg/day, Female",24 grams
same,"Liver: Pyogranuloma, focal, incidence","[5]; 100 mg/kg/day, M",1/5
same,Number of animals/dose that tolerated 5 doses,"[5]; 100 mg/kg/day, M",5/5
same,Body Weights Avg.,"[5]; 100 mg/kg/day, Male",23 grams
same,Clinical Signs,[5]; 150 mg/kg/day IV daily x5,None.
same,Death,[5]; 150 mg/kg/day IV daily x5,—
same,"Liver: Inflammation, portal, incidence","[5]; 150 mg/kg/day, F",2/5
same,"Liver: Pyogranuloma, focal, incidence","[5]; 150 mg/kg/day, F",3/5
same,Number of animals/dose that tolerated 5 doses,"[5]; 150 mg/kg/day, F",5/5
same,Body Weights Avg.,"[5]; 150 mg/kg/day, Female",25 grams
same,"Kidney: Inflammation, focal, incidence","[5]; 150 mg/kg/day, M",1/5
same,"Liver: Pyogranuloma, focal, incidence","[5]; 150 mg/kg/day, M",1/5
same,"Lung: Inflammation, focal, incidence","[5]; 150 mg/kg/day, M",1/5
same,Number of animals/dose that tolerated 5 doses,"[5]; 150 mg/kg/day, M",5/5
same,"Tail: Acute necrosis with vasculitis, thrombosis, and hemorrhage, incidence","[5]; 150 mg/kg/day, M",1/5
same,"Tail: Ulcerative dermatitis, incidence","[5]; 150 mg/kg/day, M",1/5
same,"Testes: Seminiferous tubular degeneration, incidence","[5]; 150 mg/kg/day, M",1/5
same,Body Weights Avg.,"[5]; 150 mg/kg/day, Male",23 grams
same,Clinical Signs,[5]; 200 mg/kg/day IV daily x5,2 F tail necrosis: amputate
same,Death,[5]; 200 mg/kg/day IV daily x5,—
same,"Kidney: Inflammation, focal, incidence","[5]; 200 mg/kg/day, F",2/5
same,"Liver: Hepatocyte hypertrophy: Centrilobular (compatible with SER), incidence","[5]; 200 mg/kg/day, F",1/5
same,"Liver: Increased mitoses, incidence","[5]; 200 mg/kg/day, F",1/5
same,"Liver: Inflammation, portal, incidence","[5]; 200 mg/kg/day, F",3/5
same,"Liver: Pyogranuloma, focal, incidence","[5]; 200 mg/kg/day, F",3/5
same,Number of animals/dose that tolerated 5 doses,"[5]; 200 mg/kg/day, F",5/5
same,"Tail: Acute necrosis with vasculitis, thrombosis, and hemorrhage, incidence","[5]; 200 mg/kg/day, F",4/5
same,"Tail: Ulcerative dermatitis, incidence","[5]; 200 mg/kg/day, F",2/5
same,Body Weights Avg.,"[5]; 200 mg/kg/day, Female",24 grams
same,"Epididymus: Oligospermia, incidence","[5]; 200 mg/kg/day, M",1/5
same,"Heart: Interstitial fat, increased, incidence","[5]; 200 mg/kg/day, M",1/5
same,"Liver: Ito cell hypertrophy, incidence","[5]; 200 mg/kg/day, M",1/5
same,"Liver: Pyogranuloma, focal, incidence","[5]; 200 mg/kg/day, M",2/5
same,Number of animals/dose that tolerated 5 doses,"[5]; 200 mg/kg/day, M",5/5
same,"Testes: Seminiferous tubular degeneration, incidence","[5]; 200 mg/kg/day, M",1/5
same,Body Weights Avg.,"[5]; 200 mg/kg/day, Male",24 grams
same,Clinical Signs,[5]; 250 mg/kg/day IV daily x5,2 M tail necr.: amputate
same,"Liver: Focus of Alteration, eosinophilic, incidence","[5]; 250 mg/kg/day, F",1/5
same,"Liver: Hepatocyte hypertrophy: Centrilobular (compatible with SER), incidence","[5]; 250 mg/kg/day, F",1/5
same,"Liver: Inflammation, portal, incidence","[5]; 250 mg/kg/day, F",2/5
same,"Liver: Pyogranuloma, focal, incidence","[5]; 250 mg/kg/day, F",1/5
same,"Lung: Inflammation, focal, incidence","[5]; 250 mg/kg/day, F",1/5
same,Number of animals/dose that tolerated 4 doses,"[5]; 250 mg/kg/day, F",1/5
same,Number of animals/dose that tolerated 5 doses,"[5]; 250 mg/kg/day, F",4/5
same,Body Weights Avg.,"[5]; 250 mg/kg/day, Female",24 grams
same,"Epididymus: Oligospermia, incidence","[5]; 250 mg/kg/day, M",1/5
same,"Liver: Hepatocyte hypertrophy: Centrilobular (compatible with SER), incidence","[5]; 250 mg/kg/day, M",5/5
same,"Liver: Pyogranuloma, focal, incidence","[5]; 250 mg/kg/day, M",3/5
same,Number of animals/dose that tolerated 5 doses,"[5]; 250 mg/kg/day, M",5/5
same,"Tail: Acute necrosis with vasculitis, thrombosis, and hemorrhage, incidence","[5]; 250 mg/kg/day, M",2/5
same,"Tail: Ulcerative dermatitis, incidence","[5]; 250 mg/kg/day, M",1/5
same,"Testes: Seminiferous tubular degeneration, incidence","[5]; 250 mg/kg/day, M",2/5
same,Body Weights Avg.,"[5]; 250 mg/kg/day, Male",24 grams
same,Clinical Signs,[5]; 300 mg/kg/day IV daily x5,Slight decr. activity and 1 F tail necr.: amputate
